Assay results as given in ChEMBL document CHEMBL5346899, “PKM2/PDK1 dual-targeted shikonin derivatives restore the sensitivity of EGFR-mutated NSCLC cells to gefitinib by remodeling glucose metabolism” (Eur J Med Chem, 2023).
Calls of active or inactive are those of the source. The calls are words filed in the database; no cut-off is given here.

What was measured:
HCC827 [1] = test: Antiproliferative activity against human HCC827 cells assessed as inhibition of clone formation rate; format: functional, cell-based
HCC827 [2] = test: Induction of apoptosis in human HCC827 cells assessed as late apoptotic cells at 1 micromol/L incubated for 24 hrs by Annexin V-FITC/PI staining based analysis (reference value: 8.42%); format: functional; details: dose 1 µmol/L, at 1 µM
NCI-H1975 [3] = test: Induction of apoptosis in human NCI-H1975 cells assessed as late apoptotic cells at 10 micromol/L incubated for 24 hrs by Annexin V-FITC/PI staining based analysis (reference value: 8.61%); format: functional; details: dose 10 µmol/L, at 10 µM
NCI-H1975 [4] = test: Induction of apoptosis in human NCI-H1975 cells assessed as late apoptotic cells at 2 micromol/L incubated for 24 hrs by Annexin V-FITC/PI staining based analysis (reference value: 2.66%); format: functional; details: dose 2 µmol/L, at 2 µM
Pyruvate kinase PKM [5] = biological target: T1, Pyruvate kinase PKM (Homo sapiens, UniProt P14618); test: Activation of PKM2 in human NCI-H1975 cells at 1 to 2 micromol/L by Western blot analysis; format: cell-based; details: filed as activator, dose 1-2 µmol/L
T1 sequence (P14618 2-531 limits assumed): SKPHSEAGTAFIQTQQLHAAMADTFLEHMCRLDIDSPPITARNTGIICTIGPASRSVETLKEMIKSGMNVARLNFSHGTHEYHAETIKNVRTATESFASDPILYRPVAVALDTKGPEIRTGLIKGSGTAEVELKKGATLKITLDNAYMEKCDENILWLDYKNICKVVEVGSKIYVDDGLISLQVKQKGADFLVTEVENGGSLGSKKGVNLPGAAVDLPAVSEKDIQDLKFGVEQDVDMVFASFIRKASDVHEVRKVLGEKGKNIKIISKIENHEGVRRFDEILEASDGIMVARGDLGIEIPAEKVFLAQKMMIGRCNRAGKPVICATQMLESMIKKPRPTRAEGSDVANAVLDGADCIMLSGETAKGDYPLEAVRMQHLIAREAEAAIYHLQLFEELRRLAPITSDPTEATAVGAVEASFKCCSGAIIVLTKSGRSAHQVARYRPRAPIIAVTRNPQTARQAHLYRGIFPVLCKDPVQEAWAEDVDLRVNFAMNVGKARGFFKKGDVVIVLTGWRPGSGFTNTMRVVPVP

NCI-H1975 [6] = test: Induction of apoptosis in human NCI-H1975 cells with siRNA mediated […] knockdown assessed as early apoptotic cells at 2 micromol/L incubated for 24 hrs by Annexin V-FITC/PI staining based analysis (reference value: 2.54%); format: functional; details: dose 2 µmol/L, at 2 µM
NCI-H1975 [7] = test: Induction of apoptosis in human NCI-H1975 cells assessed as regulation of Smac expression by Western blot analysis; format: functional, cell-based
HCC827 [8] = test: Antiproliferative activity against siRNA mediated PKM2 knockdown human HCC827 cells assessed as inhibition of cell growth incubated for 24 hrs by CCK-8 assay; format: functional, cell-based; details: HCC827, 24 h
NCI-H1975 [9] = test: Induction of apoptosis in human NCI-H1975 cells assessed as regulation of Fas expression by Western blot analysis; format: functional, cell-based
NCI-H1975 [10] = test: Induction of apoptosis in human NCI-H1975 cells assessed as regulation of FADD expression by Western blot analysis; format: functional, cell-based
[11] = Toxicity in athymic nu/nu mouse xenografted with human NCI-H1975 cells assessed as reduction in body weight at 2.4 to 4.8 mg/kg, ip administered every 2 days for 11 days; format: organism-based; details: in vivo, 264 h, dose 2.4-4.8 mg/kg, time 11 day
Pyruvate kinase PKM [12] = biological target: T1, Pyruvate kinase PKM; test: Inhibition of PKM2 (unknown origin) nuclear translocation
[13] = Acute toxicity in ICR mouse assessed as reduction in animal survival rate at 2.4 to 38.4 mg/kg, ip administered once for 14 days and measured every day; format: organism-based; details: in vivo, 336 h, dose 2.4-38.4 mg/kg, time 14 day
NCI-H1975 [14] = test: Induction of mitochondrial transmembrane potential dissipation in human NCI-H1975 cells assessed as cells with low mitochondrial transmembrane potential at 1 micromol/L by FL-1/FL-2 channel based fluorescence analysis (reference value: 2.13%); format: functional; details: dose 1 µmol/L; at 1 µM
NCI-H1975 [15] = test: Induction of mitochondrial transmembrane potential dissipation in human NCI-H1975 cells assessed as cells with low mitochondrial transmembrane potential at 0.5 micromol/L by FL-1/FL-2 channel based fluorescence analysis (reference value: 2.13%); format: functional; details: dose 0.5 µmol/L; at 0.5 µM
NCI-H1975 [16] = test: Antiproliferative activity against siRNA mediated […] knockdown human NCI-H1975 cells assessed as inhibition of cell growth incubated for 24 hrs by CCK-8 assay; format: functional, cell-based; details: NCI-H1975, 24 h
NCI-H1975 [17] = test: Induction of apoptosis in human NCI-H1975 cells assessed as regulation of caspase-8 expression by Western blot analysis; format: functional, cell-based
NCI-H1975 [18] = test: Induction of apoptosis in human NCI-H1975 cells transfected with siRNA assessed as early apoptotic cells at 2 micromol/L incubated for 24 hrs by Annexin V-FITC/PI staining based analysis (reference value: 1.16%); format: functional; details: dose 2 µmol/L, at 2 µM
NCI-H1975 [19] = test: Induction of apoptosis in human NCI-H1975 cells with siRNA mediated […] knockdown assessed as early apoptotic cells at 1 micromol/L incubated for 24 hrs by Annexin V-FITC/PI staining based analysis (reference value: 2.54%); format: functional; details: dose 1 µmol/L, at 1 µM
HCC827 [20] = test: Antiproliferative activity against human HCC827 cells transfected with siRNA assessed as inhibition of cell growth incubated for 24 hrs by CCK-8 assay; format: functional, cell-based; details: HCC827, 24 h
NCI-H1975 [21] = test: Induction of apoptosis in human NCI-H1975 cells assessed as regulation of cleaved Caspase-9 expression by Western blot analysis; format: functional, cell-based
NCI-H1975 [22] = test: Induction of apoptosis in human NCI-H1975 cells assessed as dead cells at 0.5 micromol/L incubated for 24 hrs in presence of gefitinib by Annexin V-FITC/PI staining based analysis (reference value: 0.103%); format: functional; details: dose 0.5 µmol/L, at 0.5 µM
HCC827 [23] = test: Induction of apoptosis in human HCC827 cells assessed as early apoptotic cells at 2 micromol/L incubated for 24 hrs by Annexin V-FITC/PI staining based analysis (reference value: 9.14%); format: functional; details: dose 2 µmol/L, at 2 µM
NCI-H1975 [24] = test: Induction of apoptosis in human NCI-H1975 cells assessed as late apoptotic cells at 0.5 micromol/L incubated for 24 hrs by Annexin V-FITC/PI staining based analysis (reference value: 8.61%); format: functional; details: dose 0.5 µmol/L, at 0.5 µM
HCC827 [25] = test: Downregulation of PDK1 protein expression in human HCC827 cells at 1 to 2 micromol/L by Western blot analysis; format: functional, cell-based; details: dose 1-2 µmol/L
NCI-H1975 [26] = test: Antiproliferative activity against human NCI-H1975 cells transfected with siRNA assessed as inhibition of cell growth incubated for 24 hrs by CCK-8 assay; format: functional, cell-based; details: NCI-H1975, 24 h
NCI-H1975 [27] = test: Antitumor activity against human NCI-H1975 cells xenografted in athymic nu/nu mouse assessed as inhibition of tumor cell proliferation at 2.4 to 4.8 mg/kg, ip administered every 2 days for 11 days by Ki67 staining based analysis; format: functional, organism-based; details: dose 2.4-4.8 mg/kg, time 11.0 day
NCI-H1975 [28] = test: Induction of intracellular ROS accumulation in human NCI-H1975 cells; format: functional, cell-based
NCI-H1975 [29] = test: Induction of apoptosis in human NCI-H1975 cells assessed as late apoptotic cells at 1 micromol/L incubated for 24 hrs by Annexin V-FITC/PI staining based analysis (reference value: 2.66%); format: functional; details: dose 1 µmol/L, at 1 µM
NCI-H1975 [30] = test: Antitumor activity against human NCI-H1975 cells xenografted in athymic nu/nu mouse assessed as reduction in tumor size at 2.4 to 4.8 mg/kg, ip administered every 2 days for 11 days by vernier caliper method; format: functional, organism-based; details: dose 2.4-4.8 mg/kg, time 11.0 day
NCI-H1975 [31] = test: Induction of mitochondrial transmembrane potential dissipation in human NCI-H1975 cells assessed as cells with high mitochondrial transmembrane potential at 1 micromol/L by FL-1/FL-2 channel based fluorescence analysis (reference value: 97.4%); format: functional; details: dose 1 µmol/L; at 1 µM
HCC827 [32] = test: Effect on PKM2 protein expression in human HCC827 cells at 1 to 2 micromol/L by Western blot analysis; format: functional, cell-based; details: dose 1-2 µmol/L
NCI-H1975 [33] = test: Induction of apoptosis in human NCI-H1975 cells assessed as early apoptotic cells at 1 micromol/L incubated for 24 hrs by Annexin V-FITC/PI staining based analysis (reference value: 1.88%); format: functional; details: dose 1 µmol/L, at 1 µM
NCI-H1299 = test: Induction of intracellular ROS accumulation in human NCI-H1299 cells; format: functional, cell-based

Structure (SMILES): COC(=O)[C@H](CS[C@H](CC=C(C)C)C1=CC(=O)c2c(O)ccc(O)c2C1=O)NC(=O)CCCC[C@@H]1CCSC(c2ccccc2C)S1 (some centres undefined)
- Activity (HCC827 [1]): Dose-Dependent Effect
- Activity (HCC827 [2]): 12.1%
- Activity (NCI-H1975 [3]): 9.56%
- Activity (NCI-H1975 [4]): 37.3%
- Activity (Pyruvate kinase PKM [5]): Active
- Activity (NCI-H1975 [6]): 2.67%
- Activity (NCI-H1975 [7]): Active
- IC50 (HCC827 [8]): 13 µM
- Activity (NCI-H1975 [9]): Active
- Activity (NCI-H1975 [10]): Active
- Activity [11]: Non-Toxic
- inhibition (Pyruvate kinase PKM [12]): Active
- Activity [13]: Non-Toxic
- Activity (NCI-H1975 [14]): 11.8%
- Activity (NCI-H1975 [15]): 11.8%
- IC50 (NCI-H1975 [16]): 9 µM
- Activity (NCI-H1975 [17]): Active
- Activity (NCI-H1975 [18]): 8.24%
- Activity (NCI-H1975 [19]): 1.82%
- IC50 (HCC827 [20]): 6 µM
- Activity (NCI-H1975 [21]): Active
- Activity (NCI-H1975 [22]): 0.011%
- Activity (HCC827 [23]): 29.4%
- Activity (NCI-H1975 [24]): 11.2%
- Activity (HCC827 [25]): inactive
- IC50 (NCI-H1975 [26]): 3.5 µM
- Activity (NCI-H1975 [27]): Active
- Activity (NCI-H1975 [28]): Active
- Activity (NCI-H1975 [29]): 23.6%
- Activity (NCI-H1975 [30]): Active
- Activity (NCI-H1975 [31]): 62.2%
- Activity (HCC827 [32]): inactive
- Activity (NCI-H1975 [33]): 3.84%
- Activity (NCI-H1299): Active
